Results: ChEMBL document CHEMBL3627608, “Crystal structures of human RIP2 kinase catalytic domain complexed with ATP-competitive inhibitors: Foundations for understanding inhibitor selectivity” (Bioorg Med Chem, 2015)

How the values were obtained:
[1] = biological target: T1, Ephrin type-A receptor 6 (Homo sapiens) (UniProt Q9UF33); assay: Inhibition of EPHA6 (unknown origin) at 10 uM after 120 mins P33 radiolabeled kinase activity assay
T1 sequence (whole entry): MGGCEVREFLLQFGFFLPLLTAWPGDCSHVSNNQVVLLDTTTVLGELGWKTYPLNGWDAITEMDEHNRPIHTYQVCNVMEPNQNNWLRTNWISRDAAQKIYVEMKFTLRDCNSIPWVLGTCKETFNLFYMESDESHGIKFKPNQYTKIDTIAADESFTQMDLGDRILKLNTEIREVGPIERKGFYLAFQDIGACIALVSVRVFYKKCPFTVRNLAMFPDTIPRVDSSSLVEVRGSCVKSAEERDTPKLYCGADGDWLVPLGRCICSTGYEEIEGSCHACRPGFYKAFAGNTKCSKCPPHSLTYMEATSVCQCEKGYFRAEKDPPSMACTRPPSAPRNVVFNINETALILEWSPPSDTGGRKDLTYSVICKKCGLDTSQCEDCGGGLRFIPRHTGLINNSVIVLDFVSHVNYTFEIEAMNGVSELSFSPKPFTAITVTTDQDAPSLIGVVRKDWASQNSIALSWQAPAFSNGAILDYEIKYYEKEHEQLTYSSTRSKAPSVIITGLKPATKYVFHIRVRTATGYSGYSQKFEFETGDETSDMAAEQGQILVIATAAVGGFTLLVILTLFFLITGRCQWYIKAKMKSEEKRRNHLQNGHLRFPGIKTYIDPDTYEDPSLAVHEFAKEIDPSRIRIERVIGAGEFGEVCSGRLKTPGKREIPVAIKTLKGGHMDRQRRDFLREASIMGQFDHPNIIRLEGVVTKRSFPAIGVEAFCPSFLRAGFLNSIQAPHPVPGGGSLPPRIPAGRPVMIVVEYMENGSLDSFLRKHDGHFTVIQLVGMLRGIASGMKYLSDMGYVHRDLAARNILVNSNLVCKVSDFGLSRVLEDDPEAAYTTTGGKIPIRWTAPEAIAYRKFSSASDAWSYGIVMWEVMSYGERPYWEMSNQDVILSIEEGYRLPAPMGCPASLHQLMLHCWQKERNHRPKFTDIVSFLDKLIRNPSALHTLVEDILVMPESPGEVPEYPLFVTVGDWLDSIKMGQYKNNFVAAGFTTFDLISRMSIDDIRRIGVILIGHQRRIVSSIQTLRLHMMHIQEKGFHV

[2] = biological target: Ribosomal protein S6 kinase beta-2 (Homo sapiens) (UniProt Q9UBS0); assay: Inhibition of RPS6KB2 (unknown origin) at 10 uM after 120 mins P33 radiolabeled kinase activity assay
[3] = biological target: T2, cAMP-dependent protein kinase catalytic subunit PRKX (Homo sapiens) (UniProt P51817); assay: Inhibition of PRKX (unknown origin) at 10 uM after 120 mins P33 radiolabeled kinase activity assay
T2 sequence (whole entry): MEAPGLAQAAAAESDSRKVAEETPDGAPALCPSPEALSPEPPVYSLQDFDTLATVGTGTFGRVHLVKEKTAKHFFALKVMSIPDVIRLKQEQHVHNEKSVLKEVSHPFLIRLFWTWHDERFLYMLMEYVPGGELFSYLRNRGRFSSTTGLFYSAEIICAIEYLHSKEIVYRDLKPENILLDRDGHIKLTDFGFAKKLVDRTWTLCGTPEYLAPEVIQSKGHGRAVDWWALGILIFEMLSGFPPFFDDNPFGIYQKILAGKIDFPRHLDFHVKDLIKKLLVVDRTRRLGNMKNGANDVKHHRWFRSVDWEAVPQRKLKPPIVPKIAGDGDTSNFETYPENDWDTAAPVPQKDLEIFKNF

[4] = biological target: Rho-associated protein kinase 2 (Homo sapiens) (UniProt O75116); assay: Inhibition of ROCK2 (unknown origin) at 10 uM after 120 mins P33 radiolabeled kinase activity assay
[5] = biological target: Cyclin-dependent kinase 18 (Homo sapiens) (UniProt Q07002); assay: Inhibition of PCTK3 (unknown origin) at 10 uM after 120 mins P33 radiolabeled kinase activity assay
[6] = biological target: Inactive tyrosine-protein kinase PEAK1 (Homo sapiens) (UniProt Q9H792); assay: Inhibition of PEAK1 (unknown origin) at 10 uM after 120 mins P33 radiolabeled kinase activity assay
[7] = biological target: T3, Cytoplasmic tyrosine-protein kinase BMX (Homo sapiens) (UniProt P51813); assay: Inhibition of BMX (unknown origin) at 10 uM after 120 mins P33 radiolabeled kinase activity assay
T3 sequence (whole entry): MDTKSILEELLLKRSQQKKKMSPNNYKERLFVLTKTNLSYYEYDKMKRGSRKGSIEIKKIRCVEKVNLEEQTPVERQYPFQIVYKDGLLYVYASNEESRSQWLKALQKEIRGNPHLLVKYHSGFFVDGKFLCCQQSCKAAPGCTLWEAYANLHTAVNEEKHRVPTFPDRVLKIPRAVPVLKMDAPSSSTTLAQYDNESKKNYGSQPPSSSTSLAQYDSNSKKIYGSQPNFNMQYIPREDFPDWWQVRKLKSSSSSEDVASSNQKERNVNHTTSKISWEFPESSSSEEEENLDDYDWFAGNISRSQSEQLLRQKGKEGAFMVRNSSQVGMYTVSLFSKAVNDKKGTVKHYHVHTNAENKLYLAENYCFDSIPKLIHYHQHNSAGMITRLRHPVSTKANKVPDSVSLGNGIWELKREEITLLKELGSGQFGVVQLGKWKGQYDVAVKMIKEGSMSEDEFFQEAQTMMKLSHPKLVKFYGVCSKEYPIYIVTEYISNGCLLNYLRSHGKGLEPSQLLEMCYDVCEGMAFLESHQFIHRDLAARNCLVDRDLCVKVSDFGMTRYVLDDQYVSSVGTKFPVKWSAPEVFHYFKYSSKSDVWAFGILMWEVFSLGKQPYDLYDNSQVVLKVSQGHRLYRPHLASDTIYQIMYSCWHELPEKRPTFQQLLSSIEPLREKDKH

[8] = biological target: CDK6/cyclin D3 (Homo sapiens) (UniProt P30281+Q00534); assay: Inhibition of CDK6/cyclin D3 (unknown origin) at 10 uM after 120 mins P33 radiolabeled kinase activity assay; type: protein-complex assay

Inactive tyrosine-protein kinase PEAK1 (Homo sapiens), sequence (Q9H792 whole entry): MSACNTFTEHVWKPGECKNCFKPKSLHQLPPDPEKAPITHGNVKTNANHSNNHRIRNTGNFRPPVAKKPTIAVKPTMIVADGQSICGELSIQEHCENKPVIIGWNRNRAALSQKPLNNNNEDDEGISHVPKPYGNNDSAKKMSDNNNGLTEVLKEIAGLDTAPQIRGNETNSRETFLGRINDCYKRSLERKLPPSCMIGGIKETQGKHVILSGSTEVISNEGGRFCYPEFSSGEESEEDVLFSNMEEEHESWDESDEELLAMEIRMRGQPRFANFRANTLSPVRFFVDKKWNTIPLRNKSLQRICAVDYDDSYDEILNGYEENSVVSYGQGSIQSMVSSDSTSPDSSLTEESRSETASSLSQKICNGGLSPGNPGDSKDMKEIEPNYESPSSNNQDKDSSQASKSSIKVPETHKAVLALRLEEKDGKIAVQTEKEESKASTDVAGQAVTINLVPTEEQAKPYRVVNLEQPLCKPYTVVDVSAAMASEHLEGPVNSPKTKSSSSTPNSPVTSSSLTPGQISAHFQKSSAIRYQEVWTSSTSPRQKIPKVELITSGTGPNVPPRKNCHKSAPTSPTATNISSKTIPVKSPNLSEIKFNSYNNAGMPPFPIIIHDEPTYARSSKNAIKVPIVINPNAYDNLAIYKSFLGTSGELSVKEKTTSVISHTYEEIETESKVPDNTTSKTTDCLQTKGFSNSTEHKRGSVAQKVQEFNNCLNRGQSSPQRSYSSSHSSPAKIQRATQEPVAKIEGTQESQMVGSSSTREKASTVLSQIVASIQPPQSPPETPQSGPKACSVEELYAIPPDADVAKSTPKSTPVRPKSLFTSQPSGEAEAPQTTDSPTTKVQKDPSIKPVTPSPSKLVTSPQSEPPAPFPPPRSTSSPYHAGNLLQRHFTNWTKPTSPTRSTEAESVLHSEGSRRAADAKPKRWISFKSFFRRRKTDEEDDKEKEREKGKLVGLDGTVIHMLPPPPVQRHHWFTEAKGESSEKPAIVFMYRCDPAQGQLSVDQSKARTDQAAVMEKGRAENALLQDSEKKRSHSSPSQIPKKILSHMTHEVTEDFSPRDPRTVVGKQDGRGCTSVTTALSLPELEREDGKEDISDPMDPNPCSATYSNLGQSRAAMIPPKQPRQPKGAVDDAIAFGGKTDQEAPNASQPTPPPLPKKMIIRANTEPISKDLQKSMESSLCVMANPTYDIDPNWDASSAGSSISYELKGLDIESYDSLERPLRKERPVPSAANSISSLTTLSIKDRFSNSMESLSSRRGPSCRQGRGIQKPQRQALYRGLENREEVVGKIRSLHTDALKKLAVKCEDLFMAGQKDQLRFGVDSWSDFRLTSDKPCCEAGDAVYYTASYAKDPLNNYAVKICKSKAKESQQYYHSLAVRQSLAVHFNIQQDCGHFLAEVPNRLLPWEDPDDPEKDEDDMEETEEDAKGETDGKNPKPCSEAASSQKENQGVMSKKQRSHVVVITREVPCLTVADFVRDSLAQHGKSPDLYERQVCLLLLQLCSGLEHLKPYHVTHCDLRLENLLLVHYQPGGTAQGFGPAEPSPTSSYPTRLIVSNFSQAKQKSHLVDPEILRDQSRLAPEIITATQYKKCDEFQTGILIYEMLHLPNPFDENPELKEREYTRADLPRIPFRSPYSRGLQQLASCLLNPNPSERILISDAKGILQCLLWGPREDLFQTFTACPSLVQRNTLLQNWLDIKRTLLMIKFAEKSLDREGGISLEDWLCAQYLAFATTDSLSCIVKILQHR
Cyclin-dependent kinase 18 (Homo sapiens), sequence (Q07002 whole entry): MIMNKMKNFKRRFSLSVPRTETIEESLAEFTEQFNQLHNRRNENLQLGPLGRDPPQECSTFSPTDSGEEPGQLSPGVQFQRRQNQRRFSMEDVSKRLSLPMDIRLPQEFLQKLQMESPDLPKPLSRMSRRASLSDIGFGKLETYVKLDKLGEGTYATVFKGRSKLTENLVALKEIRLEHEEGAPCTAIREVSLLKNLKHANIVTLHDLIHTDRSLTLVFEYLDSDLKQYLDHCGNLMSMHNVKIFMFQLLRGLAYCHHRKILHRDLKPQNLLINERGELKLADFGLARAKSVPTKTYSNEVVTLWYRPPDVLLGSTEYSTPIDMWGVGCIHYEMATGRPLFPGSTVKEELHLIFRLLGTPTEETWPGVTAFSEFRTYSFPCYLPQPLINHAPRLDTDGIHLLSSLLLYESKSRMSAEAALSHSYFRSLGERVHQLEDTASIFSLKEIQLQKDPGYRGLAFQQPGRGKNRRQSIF
Ribosomal protein S6 kinase beta-2 (Homo sapiens), sequence (Q9UBS0 whole entry): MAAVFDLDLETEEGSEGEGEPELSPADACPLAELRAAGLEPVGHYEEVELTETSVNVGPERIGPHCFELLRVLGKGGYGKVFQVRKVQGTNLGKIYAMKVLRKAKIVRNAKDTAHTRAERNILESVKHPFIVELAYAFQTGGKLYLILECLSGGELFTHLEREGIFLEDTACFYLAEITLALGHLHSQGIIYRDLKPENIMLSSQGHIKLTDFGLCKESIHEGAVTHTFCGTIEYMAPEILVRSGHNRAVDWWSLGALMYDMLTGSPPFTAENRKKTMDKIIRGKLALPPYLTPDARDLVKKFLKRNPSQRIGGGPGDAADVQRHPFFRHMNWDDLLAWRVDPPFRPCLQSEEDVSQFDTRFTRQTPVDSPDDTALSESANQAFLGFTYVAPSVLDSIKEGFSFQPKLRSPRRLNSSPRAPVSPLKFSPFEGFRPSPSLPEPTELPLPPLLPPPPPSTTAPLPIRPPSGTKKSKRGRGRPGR
Rho-associated protein kinase 2 (Homo sapiens), sequence (O75116 whole entry, looked up): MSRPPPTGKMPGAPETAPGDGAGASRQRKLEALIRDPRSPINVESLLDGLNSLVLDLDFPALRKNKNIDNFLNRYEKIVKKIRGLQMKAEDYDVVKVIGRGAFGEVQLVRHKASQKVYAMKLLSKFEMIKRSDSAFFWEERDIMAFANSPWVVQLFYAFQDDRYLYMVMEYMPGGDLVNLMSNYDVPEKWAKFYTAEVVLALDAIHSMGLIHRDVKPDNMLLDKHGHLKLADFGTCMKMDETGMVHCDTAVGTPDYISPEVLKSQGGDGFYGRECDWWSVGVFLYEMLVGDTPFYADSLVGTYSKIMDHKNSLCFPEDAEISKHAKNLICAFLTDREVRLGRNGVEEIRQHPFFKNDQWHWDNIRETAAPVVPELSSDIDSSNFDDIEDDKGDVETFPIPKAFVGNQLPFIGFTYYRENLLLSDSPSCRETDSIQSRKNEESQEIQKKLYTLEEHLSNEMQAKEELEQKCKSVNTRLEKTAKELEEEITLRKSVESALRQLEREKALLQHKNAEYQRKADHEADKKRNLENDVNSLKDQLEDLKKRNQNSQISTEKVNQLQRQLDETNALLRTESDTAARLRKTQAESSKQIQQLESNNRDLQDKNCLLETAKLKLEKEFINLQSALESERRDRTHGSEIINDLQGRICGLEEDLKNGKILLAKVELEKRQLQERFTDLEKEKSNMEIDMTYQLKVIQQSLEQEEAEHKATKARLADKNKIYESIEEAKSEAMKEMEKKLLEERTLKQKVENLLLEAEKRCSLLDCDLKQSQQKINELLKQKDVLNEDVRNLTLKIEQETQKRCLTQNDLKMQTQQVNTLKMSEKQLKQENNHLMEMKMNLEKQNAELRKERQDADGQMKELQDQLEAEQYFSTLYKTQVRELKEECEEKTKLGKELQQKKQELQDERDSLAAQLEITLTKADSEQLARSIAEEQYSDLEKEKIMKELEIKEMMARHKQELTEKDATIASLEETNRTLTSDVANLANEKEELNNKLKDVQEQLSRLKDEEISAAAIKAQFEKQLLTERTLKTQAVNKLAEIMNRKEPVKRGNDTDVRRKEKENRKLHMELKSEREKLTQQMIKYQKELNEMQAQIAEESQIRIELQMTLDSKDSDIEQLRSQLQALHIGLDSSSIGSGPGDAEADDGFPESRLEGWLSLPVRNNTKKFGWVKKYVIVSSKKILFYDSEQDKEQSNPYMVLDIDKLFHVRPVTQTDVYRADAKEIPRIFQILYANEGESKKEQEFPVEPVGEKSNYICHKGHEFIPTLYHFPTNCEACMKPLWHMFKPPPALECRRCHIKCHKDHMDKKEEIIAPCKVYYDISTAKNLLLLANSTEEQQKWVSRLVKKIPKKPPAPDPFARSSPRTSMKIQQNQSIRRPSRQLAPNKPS

CS(=O)(=O)c1cccc(Nc2nccc(-c3sc(N4CCOCC4)nc3-c3cccc(NS(=O)(=O)c4c(F)cccc4F)c3)n2)c1
inhibition [1]: 95.8%
inhibition [2]: 11.1%
inhibition [3]: 18.2%
inhibition [4]: 14.8%
inhibition [5]: 27.3%
inhibition [6]: 100%
inhibition [7]: 98%
inhibition [8]: 83.8%

COCCNC(=O)c1ccc2c(c1)nc(-c1cnc(-c3ccc(Cl)cc3)[nH]1)n2CCOC
inhibition [1]: 31.7%
inhibition [2]: 6.27%
inhibition [3]: 12.7%
inhibition [4]: 6.87%
inhibition [5]: -6.38%
inhibition [6]: 82.8%
inhibition [7]: 13.9%
inhibition [8]: 5.8%

CC(C)(C)c1cc(NC(=O)Nc2ccc(Oc3ccncc3)cc2)no1
inhibition [1]: 93.7%
inhibition [2]: 52.2%
inhibition [3]: 54.2%
inhibition [4]: 59.1%
inhibition [5]: 92.2%
inhibition [6]: 86.1%
inhibition [7]: 15.5%
inhibition [8]: 43.8%
